Measured values reported in ChEMBL document CHEMBL1201862, “PubChem BioAssay data set” (2004).
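Values below derive from 48-hour exposures of cells grown in 96-well plates, with endpoints linearly interpolated between the two concentrations bracketing the appropriate inhibition level. Abbreviation: GI50, concentration required for 50% inhibition of growth.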 Calls of active or inactive are those of the source. Cut-off read from the data, not from the text of the source: active = GI50 up to about 1.1 µM and inactive = higher.

Assays:
Experiment in all cases: growth of human tumour cells (NCI), 48 h
[1] = test system: Malme-3M
[2] = test system: OVCAR-5
[3] = test system: SK-MEL-2
[4] = test system: Hs-578T
[5] = test system: NCI-H226
[6] = test system: SNB-19
[7] = test system: HCT-15
[8] = test system: LOX IMVI
[9] = test system: NCI-H522
[10] = test system: 786-0
[11] = test system: SR
[12] = test system: TK-10
[13] = test system: SK-OV-3
[14] = test system: MCF7
[15] = test system: SNB-75
[16] = test system: M14
[17] = test system: DU-145
[18] = test system: HCC 2998
[19] = test system: SW-620
[20] = test system: CCRF-CEM

## c1ccc(CN2CCc3[nH]c4ccccc4c3C2)cc1
[1]
  GI50: 17.8 µM (inactive)
[2]
  GI50: 39.9 µM (inactive)
[3]
  GI50: 19.9 µM (inactive)
[4]
  GI50: 32.5 µM (inactive)
[5]
  GI50: 33.4 µM (inactive)
[6]
  GI50: 69.8 µM (inactive)
[7]
  GI50: 25900 nM
[8]
  GI50: 18300 nM (inactive)
[9]
  GI50: 18.1 µM (inactive)
[10]
  GI50: 22000 nM (inactive)
[11]
  GI50: 21900 nM (inactive)
[12]
  GI50: 23.9 µM (inactive)
[13]
  GI50: 58.3 µM (inactive)
[14]
  GI50: 17100 nM (inactive)
[15]
  GI50: 51.6 µM (inactive)
[16]
  GI50: 17.3 µM (inactive)
[17]
  GI50: 31 µM (inactive)
[18]
  GI50: 15.4 µM (inactive)
[19]
  GI50: 24800 nM (inactive)
[20]
  GI50: 24300 nM (inactive)

## CCN(CC)CC(C)(C)C(=O)/C=C/c1ccc(/C=C/C(=O)C(C)(C)CN(CC)CC)cc1
[1]
  GI50: 1.12 µM (inactive)
[2]
  GI50: 1.54 µM (inactive)
[3]
  GI50: 1.72 µM (inactive)
[4]
  GI50: 0.462 µM (active)
[5]
  GI50: 2.28 µM (inactive)
[6]
  GI50: 1.53 µM (inactive)
[7]
  GI50: 325 nM
[8]
  GI50: 263 nM (active)
[9]
  GI50: 0.104 µM (active)
[10]
  GI50: 182 nM (active)
[11]
  GI50: 89.3 nM (active)
[12]
  GI50: 1.19 µM (inactive)
[13]
  GI50: 2.09 µM (inactive)
[14]
  GI50: 233 nM (active)
[15]
  GI50: 1.61 µM (inactive)
[16]
  GI50: 1.03 µM (active)
[17]
  GI50: 2.01 µM (inactive)
[18]
  GI50: 0.333 µM (active)
[19]
  GI50: 211 nM (active)
[20]
  GI50: 64.6 nM (active)

## COc1ccc(/C=C\c2cc(OC)c(OC)c(OC)c2)cc1OC
[1]
  GI50: 0.0746 µM (active)
[2]
  GI50: 12.2 µM (inactive)
[3]
  GI50: 0.0641 µM (active)
[4]
  GI50: 0.0604 µM (active)
[5]
  GI50: 0.056 µM (active)
[6]
  GI50: 0.153 µM (active)
[7]
  GI50: 113 nM
[8]
  GI50: 320 nM (active)
[9]
  GI50: 0.0349 µM (active)
[10]
  GI50: 198 nM (active)
[11]
  GI50: 64.9 nM (active)
[12]
  GI50: 0.186 µM (active)
[13]
  GI50: 0.114 µM (active)
[14]
  GI50: 96.8 nM (active)
[15]
  GI50: 0.098 µM (active)
[16]
  GI50: 0.139 µM (active)
[17]
  GI50: 0.286 µM (active)
[18]
  GI50: 0.134 µM (active)
[19]
  GI50: 149 nM (active)
[20]
  GI50: 130 nM (active)

## COc1ccc(C2Oc3ccc(Cl)cc3C=C2[N+](=O)[O-])cc1OC (stereo not given)
[1]
  GI50: 1.75 µM (inactive)
[2]
  GI50: 1.5 µM (inactive)
[3]
  GI50: 1.48 µM (inactive)
[4]
  GI50: 1.07 µM (active)
[5]
  GI50: 1.64 µM (inactive)
[6]
  GI50: 1.92 µM (inactive)
[7]
  GI50: 1470 nM
[8]
  GI50: 320 nM (active)
[9]
  GI50: 1.05 µM (active)
[10]
  GI50: 388 nM (active)
[11]
  GI50: 66.1 nM (active)
[12]
  GI50: 1.51 µM (inactive)
[13]
  GI50: 2.3 µM (inactive)
[14]
  GI50: 776 nM (active)
[15]
  GI50: 1.13 µM (inactive)
[16]
  GI50: 0.231 µM (active)
[17]
  GI50: 1.62 µM (inactive)
[18]
  GI50: 1.77 µM (inactive)
[19]
  GI50: 188 nM (active)
[20]
  GI50: 41.3 nM (active)

## CCCCCCCCCC[C@@H](O)[C@@H]1CC[C@@H]([C@@H]2CC[C@@H]([C@@H](O)CCCCCCCCCC[C@H](O)CC3=CC(C)OC3=O)O2)O1 (stereo not given in full)
[1]
  GI50: 1.79 µM (inactive)
[2]
  GI50: 9.25 µM (inactive)
[3]
  GI50: 6.71 µM (inactive)
[4]
  GI50: 4.04 µM (inactive)
[5]
  GI50: 1.29 µM (inactive)
[6]
  GI50: 4.6 µM (inactive)
[7]
  GI50: 3450 nM
[8]
  GI50: 834 nM (active)
[9]
  GI50: 1.72 µM (inactive)
[10]
  GI50: 3740 nM (inactive)
[11]
  GI50: 2050 nM (inactive)
[12]
  GI50: 3.48 µM (inactive)
[13]
  GI50: 3.92 µM (inactive)
[14]
  GI50: 1440 nM (inactive)
[15]
  GI50: 3.33 µM (inactive)
[16]
  GI50: 3.71 µM (inactive)
[17]
  GI50: 8.95 µM (inactive)
[18]
  GI50: 4.31 µM (inactive)
[19]
  GI50: 3780 nM (inactive)
[20]
  GI50: 1500 nM (inactive)
